Values of other authors in patent US12440501B2, “Cannabinoid compositions and methods of use thereof for immune modulation” (SRIN Therapeutics, Inc., priority 2019, dated 2025).

How the values were obtained:
xenograft tumors = settings: regardless of Ras/Raf pathway deregulation
[1] = test system: BRAF(V600E), BRAF(wild type), c-RAF, VEGFR2, PDGFR, CSF1R, RET, c-KIT, SRC, STE20; settings: range over several intracellular kinases
HCT116 [2] = test system: HCT116
GPR55 = GPR55 (Homo sapiens, UniProt Q9Y2T6)
Chain of GPR55 (Q9Y2T6 whole entry, species assumed): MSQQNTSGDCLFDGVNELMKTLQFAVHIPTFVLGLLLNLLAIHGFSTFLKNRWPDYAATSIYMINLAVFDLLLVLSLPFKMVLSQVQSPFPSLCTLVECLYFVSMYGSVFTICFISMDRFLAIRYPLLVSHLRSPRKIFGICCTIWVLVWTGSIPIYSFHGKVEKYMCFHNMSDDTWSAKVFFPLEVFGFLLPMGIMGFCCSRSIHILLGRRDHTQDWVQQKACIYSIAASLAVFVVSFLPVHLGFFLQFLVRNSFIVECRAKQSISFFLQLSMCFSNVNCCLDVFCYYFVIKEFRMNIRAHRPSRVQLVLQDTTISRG

[3] = mice, 120 mg/kg i.p.
[4] = test system: ICAM-1 expression on A549; settings: in vitro
HCT116 [5] = test system: HCT116; remark: listed apart in the source
VEGFR expression = settings: doses of 1-5 mg/kg
melanoma = settings: share of melanoma patients

## Cn1cnc2c(F)c(Nc3ccc(Br)cc3F)c(C(=O)NOCCO)cc21 [MEK162]
Xenograft tumors
  inhibition of growth of xenograft tumors: highly effective in inhibiting growth of xenograft tumors

## C=C(C)[C@@H]1CCC(C)=C[C@H]1c1c(O)cc(CCCCC)cc1O [cannabidiol]
HCT116 [2]
  anti-proliferative effect: significant anti-proliferative effect
GPR55
  activity at GPR55: antagonist
A549
  inhibition of A549 invasion and metastasis: profound inhibition
Caco-2
  anti-proliferative effect: significant anti-proliferative effect
[3]
  peak plasma levels: 14.3 µg/mL
  plasma levels: 14300 ng/mL
DLD-1
  apoptosis: induces apoptosis
[4]
  ICAM-1 expression: upregulates ICAM-1 expression
HCT116 [5]
  apoptosis: induces apoptosis
VEGFR expression
  VEGFR expression: significantly reduce VEGFR expression

## ipilimumab: FDA-approved immune checkpoint inhibitor targeting CTLA-4
melanoma
  responses in melanoma patients: ~50%

## nivolumab: FDA-approved immune checkpoint inhibitor targeting PD-1
melanoma
  responses in melanoma patients: ~50%

## pembrolizumab: FDA-approved immune checkpoint inhibitor targeting PD-1
melanoma
  responses in melanoma patients: ~50%
